Experimental findings from US12624017B2, “Salt form of isoquinolinone type compound as rock inhibitor and preparation method therefor” (GUANGZHOU OCUSUN OPHTHALMIC BIOTECHNOLOGY CO., LTD., priority 2020, dated 2026) are described below.

Data set [1] can be described thus: Hygroscopicity research by dynamic vapor sorption (DVS). As to conditions: 25° C. and 80% RH. Format: physicochemical. How it is done: Dynamic Vapor Sorption (DVS) Method
Instrument model: SMS DVS intrinsic dynamic vapor sorption instrument
A dynamic water sorption experiment consists of adsorption and desorption. It is generally believed that at a set relative humidity, the adsorption or desorption of the sample to moisture at this relative humidity is considered to have reached equilibrium when the sample weight reaches dm/dt≤0.01%.
Sample testing temperature: T=25° C.
Equilibrium time: dm/dt: 0.01%/min
Relative humidity variation range: 0%-95%-0%; RH (%)
Test humidity change at each step: 5%
The evaluation of hygroscopicity is classified as follows:
SMS DVS intrinsic dynamic vapor sorption instrument
10 to 15 mg of the crystal form B of the compound of formula (II) was put in a DVS sample tray for testing.

Data set [2] in a line: Solid stability research (crystal form stability on storage). As to conditions: 40° C./75% RH 6 months; 25° C./60% RH 12 months. Format: physicochemical. How it is done: The crystal form B of the compound of formula (II) was placed at 40° C./75% RH (sealed with a double-layer LDPE bag and further heat-sealed with an aluminum foil bag) for 6 months, and placed at 25° C./60% RH (sealed with a double-layer LDPE bag and further heat-sealed with an aluminum foil bag) for 12 months, respectively. The crystal form was tested individually at each sampling point to determine the crystal form stability of the sample.

As for `Cc1ccc(C(=O)OCn2cc(C)c3c(S(=O)(=O)N4CC[C@H](N)C4)cccc3c2=O)c(C)c1`, in data set [1], the Classification of hygroscopicity result was “slightly hygroscopic”. Further, in data set [1] (DVS), the “ΔW, hygroscopic weight gain” value is 0.736%. Further, the “Stability in accelerated and long-term tests” value in data set [2] was “good stability”.
